Results from patent US20050153021A1, “Calcium-fortified protein-based beverage containing calcium (lactate) gluconate citrate” (PURAC BIOCHEM BV, priority 2003, published 2005).

Key:
[1] = Stability test in presence of protein: calcium salt added to milk, heat treatment; format: physicochemical; conditions: 600 ppm calcium added
[2] = Stability test in presence of protein: calcium salt added to soy milk, heat treatment; format: physicochemical; conditions: 600 ppm calcium added

| Compound | protein stability (coagulation) of the fortified milk after heat treatment [1] | protein stability (coagulation / viscosity) of the fortified soy milk after heat treatment [2] |
| --- | --- | --- |
| CC(O)C(=O)O.O=C(O)[C@H](O)[C@@H](O)[C@H](O)[C@H](O)CO.O=C([O-])CC(O)(CC(=O)[O-])C(=O)O.[Ca+2] [calcium lactate gluconate citrate] | coaglulated a little to become a quark like substance | somewhat increased viscosity after heat treatment, but was still pourable |
| CC(O)C(=O)[O-].O=C([O-])[C@H](O)[C@@H](O)[C@H](O)[C@H](O)CO.[Ca+2] [calcium lactate gluconate] | completely coagulated to a firm substance | completely coagulated to a firm substance |
